Data from a melting point compilation (Tetko et al.; mined from patent text by program, amines drawn as free bases though some values may be those of a salt).

Structure (SMILES)	melting point [°C]
CCOC(=O)C(=Cc1ccc(N(C)C)cc1[N+](=O)[O-])C(=O)OCC	101 to 102
FC(F)(F)Cn1cc(C#Cc2cccc(Br)c2)cn1	107 to 109
CC(=O)OCCCCCC(=O)CC(=O)c1ccccc1	23 to 24
O=C(Oc1ccc(-c2cc3ccccc3[nH]2)cc1)c1ccccc1	220
COc1cc2cc(CO)c(CO)c(-c3ccnc(Nc4ccccc4CCCO)c3)c2cc1OC	156 to 158
CC12CCC3C(CC=C4C=C(N5CCCC5)CCC43C)C1CCC2=O (stereo unspecified)	217 to 220
CCCCCCCCCCn1c(=S)nc2cc(Cl)ccn2c1=S	153 to 155
CC(=O)OCC1OC(n2c(Cl)nc3cc(Cl)c(Cl)cc32)C(OC(C)=O)C1OC(C)=O (stereo unspecified)	145 to 146
COCCOCC(=O)C1CCC2C3CCC4CC(O)CCC4(C)C3C(=O)CC12C (stereo unspecified)	115 to 121
CC(=O)OCC1OC(c2ccc(F)c(Cc3cccs3)c2)C(OC(C)=O)C(OC(C)=O)C1OC(C)=O (stereo unspecified)	119 to 121
NS(=O)(=O)c1nccn1-c1nccs1	157 to 162
CCOC(=O)c1ccc(NC(=O)C(C)C)c([N+](=O)[O-])c1	74 to 76
O=C(NCc1ccccn1)c1cc(N2CCN(Cc3ccc(F)cc3)C2=O)n[nH]1	235 to 237
Oc1ccc(-c2ncc3ncc(-c4ccsc4)cc3n2)cc1	248 to 250
O=C(Nc1ccccc1)N1CCC(C2Oc3ccccc3Cn3cccc32)CC1 (stereo unspecified)	167 to 170
OCCC=Cc1ccc(-c2ccccc2)cc1	142
O=C(C=CC=Cc1ccccc1)C=Cc1ccc([N+](=O)[O-])cc1	168 to 170
Cc1ccc(Sc2nc(C(N)=O)nc3c(C)csc23)cc1	243 to 246
O=c1c2ccc(Cl)cc2[nH]c2c(O)nn(Cc3ccco3)c(=O)c12	> 265
CC(C)(C)Cc1c(CC(C)(C)C(=O)O)n(Cc2ccc(Cl)cc2)c2ccc(OCc3ccc4occc4n3)cc12	172 to 173
CCc1nc2ccccc2c(=O)o1	83.9
Cc1nn(C(C)(C)C)c(N)c1C#N	156 to 157
Cc1cccc(-n2nccc2-c2nn(-c3cccc(C(F)(F)F)c3)ccc2=O)c1	142 to 143

Structure (SMILES)	melting point [°C]
C[C@H]1C(=O)NC2CCC(=O)N21 (stereo partly specified)	84 to 86
O=c1c2ccccc2ncn1CCN1CCC(Nc2nc3ccccc3n2Cc2ccc(F)cc2)CC1	191
CCCC[C@H](NC(=O)[C@H](CC(C)C)NC(=O)c1cccc(F)c1F)C(=O)CSCc1ccco1	120 to 122
Cc1cn2ccc(N)c(I)c2n1	185
CCC(=O)NCC1CN=C(c2ccccc2F)c2cc(Cl)ccc2N1 (stereo unspecified)	131 to 133
CCCCNc1cc(C(=O)O)cc(S(N)(=O)=O)c1Oc1ccc(N)cc1	264
CCOCCCn1ccc(=O)c(OC(=O)NCC(=O)OCC)c1C	84 to 85
Cc1ccccc1CNC(=O)c1ccc2n1Cc1ccccc1N(C(=O)c1ccc(-c3ccccc3C)c(C)c1)C2	128 to 130
CSC(=N[N+](=O)[O-])NCc1cnc(Cl)s1	162 to 165
Cc1cc(C(O)(C(F)(F)F)C(F)(F)F)cc(C)c1NCCO	110 to 113
CC(=O)OCC1(COC(C)=O)CC1(Br)Cn1cc(C)c(=O)[nH]c1=O (stereo unspecified)	197 to 198
CC(C)(C)C1=CC(=Nc2cccc(C(=O)O)c2)C=C(C(C)(C)C)C1=O	230 to 231
CC(=O)OCC(=O)C1(OC(=O)c2ccccc2)CCC2C3CC(C)C4=CC(=O)C=CC4(C)C3C(O)CC21C (stereo unspecified)	258
CC(C)(C)OC(=O)NCCCCCCNC(=O)c1cccc(-c2nc(=O)c3ccccc3s2)n1	145
CCNC(=O)[C@H](C)C[C@H](O)[C@H](CC1CCCCC1)NC(=O)[C@H](Cc1cscn1)NC(=O)OC(C)(C)C	179 to 181
COC(=O)Cn1c(=O)c2ccccc2n(CCCN2CCC(OC(c3ccccc3)c3ccccc3)CC2)c1=O	109 to 110
COC(=O)C1CC2c3cccc4[nH]cc(c34)CC2N(C(=O)C2CC2)C1 (stereo unspecified)	276 to 278
CC1(C2OCCO2)C=CC(C#N)=CC1 (stereo unspecified)	70
COc1cc2ncc(C#N)c(Nc3cccc(C(N)=O)c3)c2cc1OC	253 to 255
COc1ccc(C(=O)Nc2cc(NC(=O)c3ccc(O)cc3)ccc2C)cc1OC	258 to 259
NS(=O)(=O)c1ccc(-n2nc(C(F)(F)F)cc2-c2ccc(-c3cscn3)c(O)c2)cc1F	224 to 226
COc1ccc(-n2c(=O)cc(C(F)(F)F)n(C)c2=O)c2c1CC(C)(C)O2	201 to 203
CCOC(=O)c1ccc(N2CCN(C(=O)CCc3cc(C(C)(C)C)c(O)c(C(C)(C)C)c3)CC2)cc1	85 to 86

Structure (SMILES)	melting point [°C]
O=C1c2c(Sc3ccccc3)ccc(Sc3ccc(O)cc3)c2C(=O)c2c(Sc3ccccc3)ccc(Sc3ccc(O)cc3)c21	> 340
CCCCCC(=O)c1c(C)n(C(=O)OC)c(=O)n1C(=O)OC	84 to 86
O=C(O)CCCc1cc(-c2ccccc2)nc2ccccc12	125
CC1(C)CC(NC(=O)c2ccc(-c3cc4cc(Cl)c(Cl)cc4[nH]3)c(OCc3ccccc3)c2)CC(C)(C)N1	220
CC(COc1ccc(CC2SC(=O)NC2=O)cc1)C1CC(COc2ccccc2)OC1=S (stereo unspecified)	53 to 58
CCOc1nc(C2CC2)nc(OC)c1C=O	93 to 94
CC(C)c1nn(-c2ccc(C(F)(F)F)cn2)cc1CCCCOc1ccc(CCC(=O)O)cc1	144 to 145
COC(=O)[C@H]1NC(=O)[C@H]1NC(=O)Cc1csc(NC(=O)CCl)n1 (relative stereo)	120 to 122
CCOC1=Nc2nc(C(C)(C)C)[nH]c2C2=N[C@H](Cc3ccccc3)CN12	220 to 222
COc1ccc(-c2cccc(O)c2)cc1	76.5 to 78
CN(C)C=C(C#N)C(=O)Nc1ccccc1	162 to 164
CC(=O)N[C@H](COCc1cc(C)cc(C)c1)Cc1ccccc1	76 to 78
O=c1c2c(c1=O)Nc1c(Cl)cc(C(F)(F)F)cc1N2	335 to 337
CCOC(=O)/C=C/c1ccc(OCCN2CCCC2=O)cc1OCc1ccccc1	94 to 97
COC(=O)C[C@H](Cc1ccccc1)NC(=O)OCC(C)C	50 to 52
O=C(O)c1ccc(OCC2CN(C(=O)c3ccccc3)C(=O)O2)cc1 (stereo unspecified)	219 to 221
COc1ccccc1CC(c1sccc1C)N(C)C=O (stereo unspecified)	80 to 83
Cc1ccc(S(=O)(=O)N2[C@@H](C(=N)NO)CC[C@H]2c2ccc(F)cc2)cc1 (racemic)	217
CCOC(=O)c1nn(-c2ccccc2C)c(=O)c2c(N)scc12	209 to 210
N#Cc1ccc(N(Cc2ccc3cc(O)ccc3c2)n2cnnc2)cc1	281 to 284
CSc1ccc2cc(C(=O)c3ccccc3)cc(CCNC(C)=O)c2c1	126 to 128
O=C(O)c1ccc(N2CCOCC2)c(NC(=O)C(CS)Cc2ccccc2)c1 (stereo unspecified)	218 to 222

Further lines, results first:

melting point [°C]	Structure (SMILES)
197 to 198	COc1nc(C)cnc1NS(=O)(=O)c1cccnc1-c1ccc(N2CCOCC2)cc1
> 260	CNC1c2ccccc2CC1N1CCCCC1 (stereo unspecified)
128 to 129	Fc1ccc(F)c(C(Sc2ccc(Cl)cc2)c2cc(Cl)ncc2Cl)c1 (stereo unspecified)
165 to 166	CSC(Oc1ccc2ncc(I)cc2c1)C(=O)NC(C)(C)C (stereo unspecified)
203 to 205	CN1CC(c2cc(CCc3ccccc3)cnn2)=C(O)C1=O
255 to 258	O=C(O)c1cc(Cl)cc2cc(-c3ccccc3)oc12
116 to 119	N=C(Nc1ccccc1)N1CCC1
45 to 50	CC(C)(C)[S@](=O)N1CCCC[C@@H]1c1ccccc1
131 to 132	CCOC(=O)Nc1cccc(OC)c1[N+](=O)[O-]
149 to 150	CC(=O)Nc1ccc(-n2nc(CCCCCC(=O)O)c3c2CCC3)cc1
187 to 188	O=C(O)C1CCOc2c(Cl)cc(-c3ccccc3)cc21 (stereo unspecified)
132 to 133	Clc1ccc(-c2nc(-n3cncn3)oc2CCC2=NCCO2)cc1
145 to 147	CC(=O)N1CC[C@H]2Cc3ccccc3[C@@H](c3ccccc3)N2CC1 (racemic)
66 to 68	CC(=NOCCO)c1ccc(-c2ccccc2)cn1
216 to 218	Nc1nc2ccccc2c2c1nc(C1CCCC1)n2CCOc1ccccc1
144 to 146	CC(=O)N1CCN(c2c(Cl)cncc2Cl)CC1
114	Cc1c(Cc2ccccc2)c(=O)n(C2CCCC2)c2nc(Nc3ccc(N4CCNCC4)cc3)ncc12

melting point [°C]	Structure (SMILES)
137 to 140	O=[N+]([O-])c1cnc(N2CCc3ccccc3CC2)c([N+](=O)[O-])c1
132 to 134	COc1ccc(CC2Cc3cc(C)cnc3C(O)C2)cc1 (single isomer, unassigned; (+))
86 to 92	CC(C)CC1CCCCCc2c1oc(=O)c(C(c1ccccc1)C1CC1)c2O (stereo unspecified)
96	ON=C(c1ccc2c(c1)OCO2)C(F)(F)F
104 to 105	CCOC(=O)CCC12CCC(=O)N1C(=O)CC2
142	CCc1cc(Cl)c(NC(C)=O)c(Cl)n1
> 200	CNc1nc2ccccc2n1CCO
238 to 242	c1ccc(C(N=C2NCCCN2)c2ccccc2)cc1
185 to 187	C#CCNC(=O)c1cccc(-c2ccc3cnc(Nc4ccc(N5CCN(C)CC5)cc4)nn23)c1
153 to 155	O=C(O)CCC12CCCn3c1c(c1ccccc13)CCO2 (stereo unspecified)
104 to 106	CC(C)CC(C#N)NC(=O)C1CCCCC1NC(=O)OCc1ccccc1 (stereo unspecified)
214 to 215	Nc1ccc(N2C(=O)CCCC2=O)cc1
92 to 93	OC1(c2ccc(Cl)nc2)CCCC1
202 to 204	COc1ccc2c(c1)c(CC(=O)O)c(C)n2-c1ncnc2cc(Cl)ccc12
62 to 65	Cn1cnc2ccnc(Cl)c21
154	CS(=O)(=O)Cc1cc(Br)ccc1C(=O)c1cnoc1C1CC1
